For data set [1], the system named is Human betaherpesvirus 5. Description: Antiviral activity against HCMV AD169 infected in HFF cells incubated for 96 hrs. Format: functional, organism-based. As to conditions: Human betaherpesvirus 5, AD169, HFF.
Data set [2] relates to Human betaherpesvirus 5. Description: Antiviral activity against HCMV Merlin (RCMV 1111) infected in HFF cells incubated for 96 hrs. Format: functional, organism-based. The following applies: Human betaherpesvirus 5, Merlin (RCMV 1111).
Data set [3] deals with Human betaherpesvirus 5. The data set is described as follows: microbe, parasite or virus in culture. Format: functional, organism-based.
A short description of data set [4]: in vitro. The following applies: human, huh-7.
The test system of data set [5] is Hepatitis C virus. The data set is described as follows: microbe, parasite or virus in culture.
Data set [6] concerns Hepatitis C virus. Description: microbe, parasite or virus in culture. The source holds these as a separate data set.
Data set [7] is described as follows: in vitro. As to conditions: human.
Data set [8] in a line: in vitro. As to conditions: human, hela.
Data set [9] relates to Coxsackievirus B3. Description: microbe, parasite or virus in culture. The following applies: Enterovirus B.
The test system of data set [10] is Human rhinovirus sp. Description: microbe, parasite or virus in culture.
Data set [11] has as its system Hepatitis C virus. The data set is described as follows: microbe, parasite or virus in culture. The following applies: subtype 1b.
The test system of data set [12] is Influenza A virus. Description: Antiviral activity against influenza A virus HN79. Format: functional, organism-based.
Data set [13] deals with Influenza A virus. The data set is described as follows: microbe, parasite or virus in culture. As to conditions: pdmH1N1. Type of data set: functional, organism-based.
The subject of data set [14] is Influenza A virus. The data set is described as follows: microbe, parasite or virus in culture. Format: functional, organism-based. The following applies: H3N2.
For data set [15], the system named is Influenza A virus. Description: microbe, parasite or virus in culture. Format: functional, organism-based.
Data set [16] is described as follows: Cytotoxicity against human A549 cells. Format: toxicity, cell-based.
Data set [17] relates to Dengue virus. The data set is described as follows: microbe, parasite or virus in culture.
The test system of data set [18] is Human alphaherpesvirus 1. Description: microbe, parasite or virus in culture. Format: functional, organism-based.
In data set [19] the test system is Human alphaherpesvirus 1. Description: Antiviral activity against HSV-1 in HFL1 cells incubated for 24 hrs. Type of data set: functional, organism-based. As to conditions: Human alphaherpesvirus 1, HFL1, 24 h.
A short description of data set [20]: Cytotoxicity against HFL1 cells. Format: toxicity, cell-based. As to conditions: human.
Data set [21] concerns Human alphaherpesvirus 1. Description: Antiviral activity against HSV-1 at 10 uM relative to control. Type of data set: functional.
For data set [22], the system named is Influenza A virus. The data set is described as follows: microbe, parasite or virus in culture. As to conditions: H1N1pdm09. Format: functional, organism-based.
The subject of data set [23] is SARS-CoV-2. The data set is described as follows: microbe, parasite or virus in culture. Type of data set: functional, organism-based. As to conditions: Severe acute respiratory syndrome coronavirus 2.
Data set [24] deals with SARS-CoV-2. Description: microbe, parasite or virus in culture. Format: functional, organism-based. As to conditions: Severe acute respiratory syndrome coronavirus 2. This is another data set of the same source.
In data set [25] the test system is Vero C1008. Description: Cytotoxicity against African green monkey Vero E6 cells at 250 nM. Type of data set: toxicity, cell-based. As to conditions: chlorocebus sabaeus, vero c1008, 0.25 µM.
Data set [26] has as its system Influenza A virus. Description: Antiviral actiivty against Influenza A (A/Regensburg/D6/2009 (H1N1)) infected in human A549 cells. Format: functional, organism-based.

pEC50, pIC50: −log10 of the molar value. A value given as a limit tells only on which side of the number the result lay.

Broadly, the pEC50 is −log10 of the EC50, conventionally taken in molar units. As to `COc1cc[nH]c1/C=C1\C(=O)Nc2ccc([N+](=O)[O-])c(N3CC[C@@H](O)C3)c21`, the pEC50 was 8.00 in data set [1], 5.89 in [2] and 8.00 in data set [3].

As to `Cc1nc2c(NCc3cccc(S(C)(=O)=O)c3)nccn2c1-c1ccc(O)c(F)c1`, in data set [4], the CC50 was above 30 µM. Further, the pEC50 in data set [5] and in [6] was 7.00 throughout.

`COc1cc(-c2cnc3c(N4CCOCC4)snc3c2)cc(OC)c1OC` displayed a CC50 in data set [7] (Huh-7.5.1 cells) of 23.2 µM. This compound had a pEC50 in [6] of 5.60.

As for `COc1ccc(-c2cnc3c(OC(C)C)snc3c2)cc1OC`, the CC50 in data set [7] (huh7.5.1) was above 10 µM.

The compound `CC(=O)NCCNc1cc(Cl)nn2c(-c3cccc(S(=O)(=O)N(C)C)c3)c(C)nc12` gave a CC50 in [8] above 50 µM. For the same compound, the pEC50 in data set [9] was 6.85; in data set [10], 5.99; in data set [11], 7.10.

Usually pIC50 stands for the negative decadic logarithm of the IC50, by convention in mol/L. As to `Cc1ccc([N+](=O)[O-])cc1S(=O)(=O)N(C)/N=C/c1cnc2ccc(Br)cn12`, the negative-log IC50 (pIC50) in data set [12], in [13], in data set [14] and in [15] was 7.40 each time. In data set [16], this compound returned a CC50 above 100 µM.

As to `COc1ccc(-c2cnc3[nH]cc(C#Cc4cccnc4)c3c2)cc1OC`, the CC50 in data set [7] (Huh-7.5.1 cells) was found to be 17 µM. In [17], the pEC50 is 7.37.

In the case of `COc1ccc(-c2ccc3nsc(N4C[C@@H](C)O[C@@H](C)C4)c3n2)cc1OC`, the CC50 in data set [7] (huh7.5.1) is above 10 µM. In data set [17], this compound gave a negative-log EC50 (pEC50) of 6.00.

`Cc1c(NC(=O)c2cccc(NC(=O)C(C)NC(=O)c3ccco3)c2)c(=O)n(-c2ccccc2)n1C` (centres undefined) gave a pEC50 in data set [18] of 4.19. This compound also showed a negative logarithm of the IC50 (pIC50) in data set [19] of 4.54. Besides, the CC50 in [20] is 2040 µM.

On to `CC1Oc2ccc(NC(=O)[C@@H](Cc3c[nH]c4ccccc34)NC(=O)c3ccc(F)cc3)cc2NC1=O` (some centres undefined), for which the negative logarithm of the EC50 (pEC50) in data set [18] is 4.54. This compound also gave a pIC50 in data set [19] of 4.54. Further, the CC50 in data set [20] stood at 1410 µM.

Take `CCNS(=O)(=O)c1cc(-c2c(C)nc3c(NCc4ccnc(CC)c4)cc(Cl)nn23)ccc1OO`: the CC50 in data set [8] turned out to be 18.3 µM. In addition, the pEC50 in [9] is 7.24; in data set [10], 7.12; in data set [11], 7.54.

In turn, `Cc1cc(-c2cc(C(=O)Nc3nc(CN4CCCC(C)C4)cs3)c3c(C)noc3n2)c(C)o1` (centres undefined) showed a negative-log EC50 (pEC50) in data set [18] of 4.49. The negative-log IC50 (pIC50) in data set [19] was 4.54. Besides, in data set [20], the CC50 was determined as 159 µM.

`O=C(Nc1c[nH]nc1-c1nc2ccc(CN3CCOCC3)cc2[nH]1)NC1CC1` [AT-9283] came in with an Activity in [21] of 70%.

In data set [16], `Cc1cc(C(=O)NOCCO)c(Nc2ccc(I)cc2F)n(C)c1=O` [AZD-8330] yielded a CC50 above 100 µM. In data set [22], this compound gave a pIC50 of 7.40.

As for `CNCc1ccc(-c2cc(-c3nc(-c4ccc(S(=O)(=O)C(C)C)cc4)cnc3N)on2)cc1` [BERZOSERTIB], the pIC50 in data set [23] and in [24] was 8.37 in each case. For the same compound, the Activity entry in data set [25] is given as “Non-Toxic”.

In turn, `O=C(NOCC1CC1)c1ccc(F)c(F)c1Nc1ccc(I)cc1Cl` [CI-1040] gave a pEC50 in data set [26] of 7.59. The CC50 in [16] is 312 µM.

On to `CCc1cnn2c(NCc3ccc[n+]([O-])c3)cc(N3CCCC[C@H]3CCO)nc12` [DINACICLIB], for which the CC50 in [16] is above 100 µM.

Values taken from ChEMBL document CHEMBL5131375, “Recent Developments in the Use of Kinase Inhibitors for Management of Viral Infections” (J Med Chem, 2022).
